This data set relates to CCRIS mutagenicity, Ames/micronucleus/aberration tests. The data set can be described thus: CCRIS mutagenicity studies.
Setting [1] is: Test System: AMES SALMONELLA TYPHIMURIUM, Strain/Indicator: TA98, Metabolic Activation: NONE, Method: STANDARD PLATE.
[2] abbreviates: Test System: AMES SALMONELLA TYPHIMURIUM, Strain/Indicator: TA100, Metabolic Activation: NONE, Method: PREINCUBATION
The mark [3] stands for this setting: Test System: AMES SALMONELLA TYPHIMURIUM, Strain/Indicator: TA100, Metabolic Activation: NONE, Method: STANDARD PLATE.
Setting [4] is: Test System: AMES SALMONELLA TYPHIMURIUM, Strain/Indicator: TA102, Metabolic Activation: NONE, Method: STANDARD PLATE.
Setting [5] is: Test System: AMES SALMONELLA TYPHIMURIUM, Strain/Indicator: TA1537, Metabolic Activation: NONE, Method: STANDARD PLATE.

Calls of active or inactive are those of the source. The rule behind the calls is not given here.

Consider `C=CCC`, for which the mutagenic call was “inactive; negative” (Test System: AMES SALMONELLA TYPHIMURIUM, Strain/Indicator: TA98, Metabolic Activation: NONE, Method: GAS EXPOSURE); “inactive; negative” (Test System: AMES SALMONELLA TYPHIMURIUM, Strain/Indicator: TA98, Metabolic Activation: RAT LIVER S-9, PHENOBARBITAL AND BETA-NAPHTHOFLAVONE (40%), Method: GAS EXPOSURE); “inactive; negative” (Test System: AMES SALMONELLA TYPHIMURIUM, Strain/Indicator: TA100, Metabolic Activation: NONE, Method: GAS EXPOSURE); “inactive; negative” (Test System: AMES SALMONELLA TYPHIMURIUM, Strain/Indicator: TA100, Metabolic Activation: RAT LIVER S-9, PHENOBARBITAL AND BETA-NAPHTHOFLAVONE (40%), Method: GAS EXPOSURE); “inactive; negative” (Test System: AMES SALMONELLA TYPHIMURIUM, Strain/Indicator: TA1535, Metabolic Activation: NONE, Method: GAS EXPOSURE); “inactive; negative” (Test System: AMES SALMONELLA TYPHIMURIUM, Strain/Indicator: TA1535, Metabolic Activation: RAT LIVER S-9, PHENOBARBITAL AND BETA-NAPHTHOFLAVONE (40%), Method: GAS EXPOSURE). The mutagenic call is, setting by setting: (Test System: AMES SALMONELLA TYPHIMURIUM, Strain/Indicator: TA1537, Metabolic Activation: NONE, Method: GAS EXPOSURE) “inactive; negative”; (Test System: AMES SALMONELLA TYPHIMURIUM, Strain/Indicator: TA1537, Metabolic Activation: RAT LIVER S-9, PHENOBARBITAL AND BETA-NAPHTHOFLAVONE (40%), Method: GAS EXPOSURE) “inactive; negative”; (Test System: E.COLI, Strain/Indicator: WP2UVRA, Metabolic Activation: NONE, Method: GAS EXPOSURE) “inactive; negative”; (Test System: E.COLI, Strain/Indicator: WP2UVRA, Metabolic Activation: RAT LIVER S-9, PHENOBARBITAL AND BETA-NAPHTHOFLAVONE (40%), Method: GAS EXPOSURE) “inactive; negative”.

As to `CC1=C2C(=CO[C@H](C)[C@H]2C)C(=O)C(C(=O)O)=C1O`, the mutagenic call is, setting by setting: (End Point: In vivo chromosomal aberrations, Test System: Bone marrow cells, Species: Mouse, Strain/Sex: Balb/C / Male, Route: Intraperitoneal) “active; positive (structural changes)”; (Test System: AMES SALMONELLA TYPHIMURIUM, Strain/Indicator: TA97, Metabolic Activation: NONE, Method: STANDARD PLATE) “inactive; negative”; (Test System: AMES SALMONELLA TYPHIMURIUM, Strain/Indicator: TA97, Metabolic Activation: RAT LIVER S-9, AROCLOR 1254, Method: STANDARD PLATE) “inactive; negative”; under setting [1], “inactive; negative”; (Test System: AMES SALMONELLA TYPHIMURIUM, Strain/Indicator: TA98, Metabolic Activation: RAT LIVER S-9, AROCLOR 1254, Method: STANDARD PLATE) “inactive; negative”; under setting [2], “inactive; negative”. Besides, the mutagenic call under setting [3] is “inactive; negative”; the mutagenic call (Test System: AMES SALMONELLA TYPHIMURIUM, Strain/Indicator: TA100, Metabolic Activation: RAT LIVER S-9, AROCLOR 1254, Method: STANDARD PLATE) is “inactive; negative”; the mutagenic call (Test System: AMES SALMONELLA TYPHIMURIUM, Strain/Indicator: TA100, Metabolic Activation: RAT, LIVER, S-9, PHENOBARBITAL, Method: PREINCUBATION) was “inactive; negative”; the mutagenic call under setting [4] was “inactive; negative”; the mutagenic call (Test System: AMES SALMONELLA TYPHIMURIUM, Strain/Indicator: TA102, Metabolic Activation: RAT, LIVER, S-9, AROCLOR 1254, Method: STANDARD PLATE) was “inactive; negative”; the mutagenic call (Test System: AMES SALMONELLA TYPHIMURIUM, Strain/Indicator: TA1535, Metabolic Activation: NONE, Method: STANDARD PLATE) was “inactive; negative”. The mutagenic call is, setting by setting: (Test System: AMES SALMONELLA TYPHIMURIUM, Strain/Indicator: TA1535, Metabolic Activation: RAT LIVER S-9, AROCLOR 1254, Method: STANDARD PLATE) “inactive; negative”; under setting [5], “inactive; negative”; (Test System: AMES SALMONELLA TYPHIMURIUM, Strain/Indicator: TA1537, Metabolic Activation: RAT LIVER S-9, AROCLOR 1254, Method: STANDARD PLATE) “inactive; negative”.

Turning to `Cc1cc(O)c2c(c1O)C(=O)c1cc(O)cc(O)c1C2=O`, the mutagenic call runs as follows: under setting [5], “inactive; negative”; (Test System: AMES SALMONELLA TYPHIMURIUM, Strain/Indicator: TA1537, Metabolic Activation: RAT, LIVER, S-9, PCB, Method: STANDARD PLATE) “inactive; negative”.

For the compound `CC(C)CC(=O)CC(C)C`, the mutagenic call reads like this: (Test System: AMES SALMONELLA TYPHIMURIUM, Strain/Indicator: TA98, Metabolic Activation: HAMSTER, LIVER, S-9, AROCLOR 1254 (10%), Method: PREINCUBATION) “inactive; negative”; (Test System: AMES SALMONELLA TYPHIMURIUM, Strain/Indicator: TA98, Metabolic Activation: NONE, Method: PREINCUBATION) “inactive; negative”; (Test System: AMES SALMONELLA TYPHIMURIUM, Strain/Indicator: TA98, Metabolic Activation: RAT, LIVER, S-9, AROCLOR 1254 (10%), Method: PREINCUBATION) “inactive; negative”; (Test System: AMES SALMONELLA TYPHIMURIUM, Strain/Indicator: TA100, Metabolic Activation: HAMSTER, LIVER, S-9, AROCLOR 1254 (10%), Method: PREINCUBATION) “inactive; negative”; under setting [2], “inactive; negative”; (Test System: AMES SALMONELLA TYPHIMURIUM, Strain/Indicator: TA100, Metabolic Activation: RAT, LIVER, S-9, AROCLOR 1254 (10%), Method: PREINCUBATION) “inactive; negative”. Further, the mutagenic call by setting is: (Test System: AMES SALMONELLA TYPHIMURIUM, Strain/Indicator: TA1535, Metabolic Activation: HAMSTER, LIVER, S-9, AROCLOR 1254 (10%), Method: PREINCUBATION) “inactive; negative”; (Test System: AMES SALMONELLA TYPHIMURIUM, Strain/Indicator: TA1535, Metabolic Activation: HAMSTER, LIVER, S-9, AROCLOR 1254 (50%), Method: PREINCUBATION) “inactive; negative”; (Test System: AMES SALMONELLA TYPHIMURIUM, Strain/Indicator: TA1535, Metabolic Activation: NONE, Method: PREINCUBATION) “inactive; negative”; (Test System: AMES SALMONELLA TYPHIMURIUM, Strain/Indicator: TA1535, Metabolic Activation: RAT, LIVER, S-9, AROCLOR 1254 (10%), Method: PREINCUBATION) “inactive; negative”; (Test System: AMES SALMONELLA TYPHIMURIUM, Strain/Indicator: TA1535, Metabolic Activation: RAT, LIVER, S-9, AROCLOR 1254 (50%), Method: PREINCUBATION) “inactive; negative”; (Test System: AMES SALMONELLA TYPHIMURIUM, Strain/Indicator: TA1537, Metabolic Activation: HAMSTER, LIVER, S-9, AROCLOR 1254 (10%), Method: PREINCUBATION) “inactive; negative”. In addition, the mutagenic call was “inactive; negative” (Test System: AMES SALMONELLA TYPHIMURIUM, Strain/Indicator: TA1537, Metabolic Activation: HAMSTER, LIVER, S-9, AROCLOR 1254 (50%), Method: PREINCUBATION); “inactive; negative” (Test System: AMES SALMONELLA TYPHIMURIUM, Strain/Indicator: TA1537, Metabolic Activation: NONE, Method: PREINCUBATION); “inactive; negative” (Test System: AMES SALMONELLA TYPHIMURIUM, Strain/Indicator: TA1537, Metabolic Activation: RAT, LIVER, S-9, AROCLOR 1254 (10%), Method: PREINCUBATION); “inactive; negative” (Test System: AMES SALMONELLA TYPHIMURIUM, Strain/Indicator: TA1537, Metabolic Activation: RAT, LIVER, S-9, AROCLOR 1254 (50%), Method: PREINCUBATION).

With `CCCCCCCOP(=S)([S-])OCCCCCCC.CCCCCCCOP(=S)([S-])OCCCCCCC.[Zn+2]`, the mutagenic call was “inactive; negative” under setting [1]; “inactive; negative” (Test System: AMES SALMONELLA TYPHIMURIUM, Strain/Indicator: TA98, Metabolic Activation: RAT, LIVER, S-9, Method: STANDARD PLATE); “inactive; negative” under setting [3]; “inactive; negative” (Test System: AMES SALMONELLA TYPHIMURIUM, Strain/Indicator: TA100, Metabolic Activation: RAT, LIVER, S-9, Method: STANDARD PLATE); “inactive; negative” under setting [4]; “inactive; negative” (Test System: AMES SALMONELLA TYPHIMURIUM, Strain/Indicator: TA102, Metabolic Activation: RAT, LIVER, S-9, Method: STANDARD PLATE).
